Legend:
TRFPR = test: Pre-emergence herbicidal action against TRFPR; type: in vivo, Trifolium pratense; conditions: 21 days
Method: (§1) The evaluation for the damage caused by the chemical compositions was carried out using a scale from 0 to 100%, compared to the untreated control plants. Here, 0 means no damage and 100 means complete destruction of the plants.
(§2) In the examples below, the mixtures were applied by the pre-emergence method. To this end, the test plants were initially sown and covered with a thin layer of soil. Afterward (i.e. prior to the germination of the test plants), the mixtures according to the invention were sprayed onto the soil as an aqueous spray liquor at the stated application rate. As in the post-emergence method described above, the test period was 21 days. The damage was then evaluated as described above using a scale from 0 to 100% damage in comparison to untreated control plants (0% damage).
(§3) A safener action is present if the damage to the crop plant caused by using a mixture according to the invention which contains a safener C) is less than the damage caused when active compound A or active compounds A and B are used without safener.

POAPR = test: Pre-emergence herbicidal action against POAPR; type: in vivo, Poa pratensis; conditions: 21 days
Method: as §1, §2, §3

BIDPI = test: Greenhouse post-emergence herbicidal action against BIDPI; type: in vivo, Bidens pilosa; conditions: 21 days
Excerpt: (§4) For the post-emergence treatment, the test plants were first grown to a height of 3 to 20 cm, depending on the plant habit, and only then treated. Here, the herbicidal compositions were suspended or emulsified in water as distribution medium and sprayed using finely distributing nozzles
(§5) The respective components A and B and/or C were formulated as 10% by weight strength emulsion concentrate and introduced to the spray liquor with the amount of solvent system used for applying the active compound. In the examples, the solvent used was water.
(§6) The test period extended over 21 days. During this time, the plants were tended, and their response to the treatments with active compound was evaluated.
as §1
(§7) In the examples below, the value E which is to be expected if the activity of the individual compounds is just additive was calculated using the method of S. R. Colby (1967) “Calculating synergistic and antagonistic responses of herbicide combinations”, Weeds 15, p. 22 ff. E=X+Y−([…]) where • X=effect in percent using active compound A at an application rate a; • Y=effect in percent using active compound B at an application rate b; • E=expected effect (in %) of A+B at application rates a+b.
(§8) If the observed effect is higher than the value E calculated according to Colby, a synergistic effect is present.

TRZAW = test: Pre-emergence safener action (crop damage) in TRZAW; type: in vivo, Triticum aestivum (Winter wheat); conditions: 21 days
Method: as §1, §2, §3

ECHCG = test: Greenhouse post-emergence herbicidal action against ECHCG; type: in vivo, Echinochloa crus-galli
Excerpt: as §4, §5, §6, §1, §7, §8

POLPE = test: Greenhouse post-emergence herbicidal action against POLPE; type: in vivo, Polygonum persicaria; conditions: 21 days
Excerpt: as §4, §5, §6, §1, §7, §8

BRAPL = test: Greenhouse post-emergence herbicidal action against BRAPL; type: in vivo, Brachiaria plantaginea
Excerpt: as §4, §5, §6, §1, §7, §8

ALOMY = test: Greenhouse post-emergence herbicidal action against ALOMY; type: in vivo, Alopecurus myosuroides; conditions: 21 days
Excerpt: as §4, §5, §6, §1, §7, §8

ABUTH = test: Greenhouse post-emergence herbicidal action against ABUTH; type: in vivo, Abutilon theophrasti
Excerpt: as §4, §5, §6, §1, §7, §8

GALAP = test: Greenhouse post-emergence herbicidal action against GALAP; type: in vivo, Galium aparine
Excerpt: as §4, §5, §6, §1, §7, §8

SETFA = test: Greenhouse post-emergence herbicidal action against SETFA; type: in vivo, Setaria faberii
Excerpt: as §4, §5, §6, §1, §7, §8

COMBE = test: Greenhouse post-emergence herbicidal action against COMBE; type: in vivo, Commelina benghalensis
Excerpt: as §4, §5, §6, §1, §7, §8

[1] = I.8 200 g/ha and/or c.1 200 g/ha
[2] = I.8 400 g/ha and/or c.1 400 g/ha
[3] = application rate g/ha: I.8 0.49, b2.1 7.81
[4] = application rate g/ha: I.8 0.98, b2.1 15.63
[5] = I.14 0.49 g/ha and/or b13.3 62.5 g/ha
[6] = I.14 0.98 g/ha and/or b13.3 125 g/ha
[7] = I.14 0.49 g/ha and/or b10.3 62.5 g/ha
[8] = I.14 0.49 g/ha and/or b10.3 + c.2 62.5 + 3.13 g/ha
[9] = I.14 0.49 g/ha and/or b11.1 62.5 g/ha
[10] = I.14 0.98 g/ha and/or b10.3 125 g/ha
[11] = I.14 0.98 g/ha and/or b10.3 + c.2 125 + 6.25 g/ha
[12] = I.14 0.98 g/ha and/or b11.1 125 g/ha
[13] = I.14 1.95 g/ha and/or b13.2 125 g/ha
[14] = I.14 3.91 g/ha and/or b13.2 250 g/ha
[15] = 21 days, application rate g/ha: I.14 0.49, b2.3 0.98
[16] = 21 days, application rate g/ha: I.14 0.98, b2.3 1.95
[17] = application rate g/ha: I.14 0.49, b2.3 0.98
[18] = application rate g/ha: I.14 0.98, b2.3 1.95
[19] = 21 days, application rate g/ha: I.7 1.95, b3.2 62.5
[20] = 21 days, application rate g/ha: I.7 3.91, b3.2 125
[21] = I.7 200 g/ha and/or c.1 200 g/ha
[22] = I.7 400 g/ha and/or c.1 400 g/ha

In the case of `CC(C)N(C)S(=O)(=O)NC(=O)c1cc(-n2c(=O)cc(C(F)(F)F)n(N)c2=O)c(F)cc1Cl` [I.8], the “Herbicidal action against TRFPR” value (TRFPR; [1]) is reported as 100%, the “Herbicidal action against TRFPR” value (TRFPR; [2]) is reported as 100% and the “Herbicidal action against POAPR” value (POAPR; [1]) is reported as 98%. The “Herbicidal action against POAPR” value (POAPR; [2]) was 100%, the “Herbicidal action against BIDPI found” value (BIDPI; application rate g/ha: I.8 0.49, b2.2 7.81) was 10% and the “Herbicidal action against BIDPI found” value (BIDPI; application rate g/ha: I.8 0.98, b2.2 15.63) was 20%. For the same compound, the “Damage to crop plant TRZAW” value (TRZAW; [1]) was 30%, the “Damage to crop plant TRZAW” value (TRZAW; [2]) was 65% and the “Herbicidal action against ECHCG found” value (ECHCG; 21 days, application rate g/ha: I.8 1.95, b5.2 31.25) was 20%. For the same compound, the “Herbicidal action against ECHCG found” value (ECHCG; 21 days, application rate g/ha: I.8 3.91, b5.2 62.5) was 40%, the “Herbicidal action against POLPE found” value (POLPE; application rate g/ha: I.8 0.98, b5.1 7.81) was 10% and the “Herbicidal action against POLPE found” value (POLPE; application rate g/ha: I.8 1.95, b5.1 15.63) was 20%. The “Herbicidal action against BRAPL found” value (BRAPL; 21 days, application rate g/ha: I.8 0.98, b5.1 7.81) was 30%, the “Herbicidal action against BRAPL found” value (BRAPL; 21 days, application rate g/ha: I.8 1.95, b5.1 15.63) was 40% and the “Herbicidal action against ALOMY found” value (ALOMY; [3]) was 5%. The “Herbicidal action against ALOMY found” value (ALOMY; [4]) was 10%.

For `CC(C)CN(C)S(=O)(=O)NC(=O)c1cc(-n2c(=O)cc(C(F)(F)F)n(N)c2=O)c(F)cc1Cl` [I.14], the “Herbicidal action against BIDPI found” value (BIDPI; application rate g/ha: I.14 1.95, b10.2 250) was 40%, the “Herbicidal action against BIDPI found” value (BIDPI; application rate g/ha: I.14 3.91, b10.2 500) was 85% and the “Herbicidal action against ABUTH found” value (ABUTH; [5]) was 0%. The “Herbicidal action against ABUTH found” value (ABUTH; [6]) was 20%, the “Herbicidal action against GALAP found” value (GALAP; [7]) was 0% and the “Herbicidal action against GALAP found” value (GALAP; [8]) was 0%. For the same compound, the “Herbicidal action against GALAP found” value (GALAP; [9]) was 0%, the “Herbicidal action against GALAP found” value (GALAP; [10]) was 25% and the “Herbicidal action against GALAP found” value (GALAP; [11]) was 25%. The “Herbicidal action against GALAP found” value (GALAP; [12]) was 25%, the “Herbicidal action against ECHCG found” value (ECHCG; [13]) was 40% and the “Herbicidal action against ECHCG found” value (ECHCG; [14]) was 70%. The “Herbicidal action against BRAPL found” value (BRAPL; [15]) was 0%, the “Herbicidal action against BRAPL found” value (BRAPL; [16]) was 0% and the “Herbicidal action against BRAPL found” value (BRAPL; [5]) was 10%. For the same compound, the “Herbicidal action against BRAPL found” value (BRAPL; [6]) was 15%, the “Herbicidal action against ALOMY found” value (ALOMY; [17]) was 0% and the “Herbicidal action against ALOMY found” value (ALOMY; [18]) was 0%. For the same compound, the “Herbicidal action against SETFA found” value (SETFA; [7]) was 20%, the “Herbicidal action against SETFA found” value (SETFA; [8]) was 20% and the “Herbicidal action against SETFA found” value (SETFA; [9]) was 20%. The “Herbicidal action against SETFA found” value (SETFA; [10]) was 25%, the “Herbicidal action against SETFA found” value (SETFA; [11]) was 25% and the “Herbicidal action against SETFA found” value (SETFA; [12]) was 25%. The “Herbicidal action against COMBE found” value (COMBE; I.14 1.95 g/ha and/or b.15.1 125 g/ha) was 0% and the “Herbicidal action against COMBE found” value (COMBE; I.14 3.91 g/ha and/or b.15.1 250 g/ha) was 40%.

In the case of `COCc1cnc(C2=NC(C)(C(C)C)C(=O)N2)c(C(=O)O)c1` (stereo not drawn) [b2.1, imazamox, reference compound], the “Herbicidal action against ALOMY found” value (ALOMY; [3]) is reported as 40% and the “Herbicidal action against ALOMY found” value (ALOMY; [4]) is reported as 70%.

With `COc1cc(OC)nc(NC(=O)NS(=O)(=O)c2ncccc2C(=O)N(C)C)n1` [b2.3, nicosulfuron, reference compound] the “Herbicidal action against BRAPL found” value (BRAPL; [15]) was 70%, the “Herbicidal action against BRAPL found” value (BRAPL; [16]) was 70% and the “Herbicidal action against ALOMY found” value (ALOMY; [17]) was 50%. For the same compound, the “Herbicidal action against ALOMY found” value (ALOMY; [18]) was 60%.

For `CN(C)C(=O)Nc1ccc(Cl)c(Cl)c1` [b3.2, diuron, reference compound], the “Herbicidal action against ECHCG found” value (ECHCG; [19]) was 15%, the “Herbicidal action against ECHCG found” value (ECHCG; [20]) was 20% and the “Herbicidal action against BRAPL found” value (BRAPL; [19]) was 25%. For the same compound, the “Herbicidal action against BRAPL found” value (BRAPL; [20]) was 60%.

For `CCc1cccc(C)c1N(C(=O)CCl)[C@@H](C)COC` [b10.3, S-metolachlor, reference compound], the “Herbicidal action against GALAP found” value (GALAP; [7]) was 0%, the “Herbicidal action against GALAP found” value (GALAP; [10]) was 25% and the “Herbicidal action against SETFA found” value (SETFA; [7]) was 30%. The “Herbicidal action against SETFA found” value (SETFA; [10]) was 60%.

In the case of `CCC(C)(CC)c1cc(NC(=O)c2c(OC)cccc2OC)on1` [b11.1, isoxaben, reference compound], the “Herbicidal action against GALAP found” value (GALAP; [9]) is reported as 0%, the “Herbicidal action against GALAP found” value (GALAP; [12]) is reported as 0% and the “Herbicidal action against SETFA found” value (SETFA; [9]) is reported as 0%. The “Herbicidal action against SETFA found” value (SETFA; [12]) was 10%.

For `CNC.C[C@@H](Oc1ccc(Cl)cc1Cl)C(=O)O` [b13.1, dichlorprop-P dimethylammonium salt, reference compound], the “Herbicidal action against POLPE found” value (POLPE; application rate g/ha: I.7 1.95, b13.1 500) was 30%, the “Herbicidal action against POLPE found” value (POLPE; application rate g/ha: I.7 3.91, b13.1 1000) was 30% and the “Herbicidal action against COMBE found” value (COMBE; 21 days, application rate g/ha: I.7 1.95, b13.1 500) was 40%. For the same compound, the “Herbicidal action against COMBE found” value (COMBE; 21 days, application rate g/ha: I.7 3.91, b13.1 1000) was 75%.

`COc1c(Cl)ccc(Cl)c1C(=O)O` [b13.2, dicamba, reference compound] was tested, and the “Herbicidal action against ECHCG found” value (ECHCG; [13]) was 0% and the “Herbicidal action against ECHCG found” value (ECHCG; [14]) was 30%.

With `CCOC(=O)C1=NN(c2ccc(Cl)cc2Cl)C(C)(C(=O)OCC)C1` (stereo not drawn) [c.1, mefenpyr-diethyl, reference compound] the “Herbicidal action against TRFPR” value (TRFPR; [21]) was 5%, the “Herbicidal action against TRFPR” value (TRFPR; [22]) was 5% and the “Herbicidal action against TRFPR” value (TRFPR; [1]) was 5%. The “Herbicidal action against TRFPR” value (TRFPR; [2]) was 5%, the “Herbicidal action against POAPR” value (POAPR; [21]) was 0% and the “Herbicidal action against POAPR” value (POAPR; [22]) was 0%. For the same compound, the “Herbicidal action against POAPR” value (POAPR; [1]) was 0%, the “Herbicidal action against POAPR” value (POAPR; [2]) was 0% and the “Damage to crop plant TRZAW” value (TRZAW; [21]) was 0%. For the same compound, the “Damage to crop plant TRZAW” value (TRZAW; [22]) was 0%, the “Damage to crop plant TRZAW” value (TRZAW; [1]) was 0% and the “Damage to crop plant TRZAW” value (TRZAW; [2]) was 0%.
